US9351982B2, “Krill oil and reacted astaxanthin composition and associated method” (U.S. Nutraceuticals, LLC, priority 2009, dated 2016)

Tests used:
[1] = Stability of carotenoids blended with krill oil, UV analysis; type: physicochemical
Excerpt: Testing has determined that astaxanthin added to krill oil results in an unstable product with respect to recoverable astaxanthin by HPLC analysis. A chemical reaction most likely takes place between krill oil and at least astaxanthin in such mixtures. […] Had UV alone been used to determine product stability the decrease in recoverable astaxanthin over time would not have been observed. The test results, tables and charts of FIGS. 2-6 show the decrease in recoverable astaxanthin over time.
FIG. 2 is a chart showing data of astaxanthin at 13 days post formulation reacting with krill oil, but essentially neither lutein nor zeaxanthin. Astaxanthin is a keto-alcohol while lutein and zeaxanthin are alcohols and this can possibly make some difference. It should also be understood that the krill oil and “reacted” carotenoids, such as astaxanthin, and possibly zeaxanthin and lutein, lose their ability to be recovered over time from the mixture but can still be quantitated by ultraviolet (UV) analysis. For example, the chromophores of the carotenoids are not destroyed when the reaction takes place over time and can be used to develop a number of products useful for cardiovascular applications, joint health care applications, eye care and other diseases.
Referring now to the chart in FIG. 2, there are shown various samples and explanation. […]

lipid peroxidation = conditions: relative to alpha-tocopherol; in vitro and in vivo studies; cited from earlier work
[2] = cited from earlier work
[3] = cited from earlier work; remark: listed apart in the source
[4] = test system: LDL cholesterol oxidation; conditions: cited from earlier work
[5] = test system: C-Reactive Protein (C-RP); conditions: cited from earlier work
[6] = eight weeks of supplementation at 6 mg per day; cited from earlier work
lens epithelial cells = conditions: in vitro, at umol/L concentrations; cited from earlier work
[7] = test system: pro-oxidant activity of Vioxx; conditions: in vitro; cited from earlier work

UV quantification of the amount of astaxanthin added to blended product [1]: ~100%
Structure (SMILES): CC1=C(/C=C/C(C)=C/C=C/C(C)=C/C=C/C=C(C)/C=C/C=C(C)/C=C/C2=C(C)C(=O)[C@@H](O)CC2(C)C)C(C)(C)C[C@H](O)C1=O [astaxanthin]
mean effective concentration which inhibits lipid peroxidation, times lower than that of alpha-tocopherol (lipid peroxidation): 500 times
potency in quenching singlet oxygen, times more potent than alpha-tocopherol ([2]; relative to alpha-tocopherol): 550 times
potency in quenching singlet oxygen, times more potent than beta-carotene ([2]; relative to beta-carotene): 11 times
potency in quenching singlet oxygen, times more potent than lutein ([2]; relative to lutein): 27.5 times
potency in scavenging oxygen free radicals, times more potent than alpha-tocopherol ([3]; relative to alpha-tocopherol): 14 times
potency in scavenging oxygen free radicals, times more potent than ascorbic acid (Vitamin C) ([3]; relative to ascorbic acid): 65 times
potency in scavenging oxygen free radicals, times more potent than beta-carotene ([3]; relative to beta-carotene): 54 times
protection of LDL cholesterol against induced in vitro oxidation ([4]; 3.6 mg per day for two weeks): protects LDL cholesterol against induced in vitro oxidation
reduction of LDL cholesterol oxidation ([4]; 4 mg per day for two weeks): 26%
decrease in C-reactive protein scores ([5]; 4 mg for eight weeks): 21%
drop in serum C-RP levels ([5]; human subjects with high risk levels of C-RP, three months of treatment): 43%
negative effect in healthy adults [6]: no negative effect
suppression of UVB induced lipid per-oxidative mediated cell damage (lens epithelial cells): suppresses UVB induced lipid per-oxidative mediated cell damage
negation of pro-oxidant activity of Vioxx [7]: negate the pro-oxidant activity of Vioxx
